How the values were obtained:
[1] = molecular target: T1, recombinant human truncated SHIP1 (tSHIP1) (Homo sapiens, UniProt Q92835); experiment: Malachite Green Phosphatase Release Assay (SHIP1 phosphatase activity); format: biochemical; conditions: for SHIP1 activation, increase in the malachite green assay: initial testing
T1 construct: tSHIP1 (SHIP1, residues 397-864) was amplified from pET24TEV-tSHIP1; His tag; made in house; host or cells: E. coli BL21
T1 sequence (Q92835 397-864): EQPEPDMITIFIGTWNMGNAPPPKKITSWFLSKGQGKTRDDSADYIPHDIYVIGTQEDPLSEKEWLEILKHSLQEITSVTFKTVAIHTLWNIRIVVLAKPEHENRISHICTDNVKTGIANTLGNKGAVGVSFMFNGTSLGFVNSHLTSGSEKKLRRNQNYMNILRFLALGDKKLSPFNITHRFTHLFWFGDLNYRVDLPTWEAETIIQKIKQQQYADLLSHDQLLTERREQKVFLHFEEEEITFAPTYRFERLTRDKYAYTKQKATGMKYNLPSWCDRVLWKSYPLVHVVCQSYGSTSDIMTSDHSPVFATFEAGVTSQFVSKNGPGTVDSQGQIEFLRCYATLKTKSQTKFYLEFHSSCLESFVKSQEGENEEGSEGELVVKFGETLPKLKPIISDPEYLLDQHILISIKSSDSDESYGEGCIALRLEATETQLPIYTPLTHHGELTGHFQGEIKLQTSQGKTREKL
Outline: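 Truncated SHIP1 (residues 397-864, His-tagged, E. coli-expressed) was preincubated 2 min at room temperature with compound in pH 7.4 Hepes buffer with MgCl2/EDTA. 100 μM PI(3,4,5)P3-diC8 was then added and the reaction run 20 min at 37 °C. Phosphate release was read with malachite green at 620 nm, as % of DMSO control activity.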

[2] = Half-life in vivo; conditions: mice
From the text: This is believed to be due to rapid oxidation of the sulfur functional groups in K306 by cytochrome P450 enzymes which are prevalent in mice. […] The thiophene is still a concern, however, as this heterocycle is known to undergo oxidation by CYP enzymes and can lead to toxic metabolites.

[3] = system: C2-less SHIP1 protein; experiment: Agonism with SHIP1 protein lacking the C2 domain; format: biochemical; conditions: C2 domain of the protein deleted
From the text: (§1) New small molecule SHIP1 activators are needed to explore the effects of these molecules in IBD and AD model systems to define the role of SHIP in these disorders. […] The K306 structure is related to a series of sulfonamide based endothelial lipase inhibitors. As the molecule came from screening, no information was available about structure activity relationships in this SHIP1 activator. Sulfonamides have been used previously as phosphate mimics in the development of phosphatase inhibitors however, so it is possible that one of the sulfonamides in the K306 structure is mimicking the one of the phosphates on PI(3,4)P2, the endogenous ligand for allosteric activation of SHIP1. […] Given that K306 provides a new class of SHIP1 activators with a unique binding site that could have implications in Crohn's disease and Alzheimer's disease, synthetic studies were initiated on the structure.

[4] = system: microglia; experiment: Phagolysosomal degradation of synaptosomes and dead neurons by microglia; format: cell-based; conditions: SHIP1-dependent manner
From the text: as §1

Phosphatase activity in the Malachite Green Assay, analog concentration 125 μM ([1]; 125 μM analog, 100 μM PI(3,4,5)P3-diC8 substrate, normalized to vehicle control (DMSO) = 100%): 95%
Phosphatase activity in the Malachite Green Assay, analog concentration 250 μM ([1]; 250 μM analog, 100 μM PI(3,4,5)P3-diC8 substrate, normalized to vehicle control (DMSO) = 100%): 106%
Phosphatase activity in the Malachite Green Assay, analog concentration 500 μM ([1]; 500 μM analog, 100 μM PI(3,4,5)P3-diC8 substrate, normalized to vehicle control (DMSO) = 100%, >100% activation, <100% inhibition): 133%
SHIP1 activation, increase in the malachite green assay ([1]; tested at 250 μM): 6%
SHIP1 activation, increase in the malachite green assay ([1]; tested at 500 μM): 33%
Half-life in vivo [2]: short-half life in vivo
SMILES: Cc1sc(S(=O)(=O)N2CCSCC2)cc1NC(=O)CNS(=O)(=O)c1ccc(F)cc1 [Compound K306, 2-(4-Fluorobenzenesulfonamido)-N-[2-methyl-5-(thiomorpholine-4-sulfonyl)thiophen-3-yl]acetamide]
Agonism with C2-less SHIP1 protein [3]: maintained agonism
Phagolysosomal degradation of synaptosomes and dead neurons by microglia [4]: enhance phagolysosomal degradation

Source: patent publication US20260199365A1, “BIS-SULFONAMIDE SHIP1 ACTIVATORS” (The Research Foundation for the State University of New York, priority 2022, published 2026)
